From patent publication US11773085B2 (Foghorn Therapeutics Inc., priority 2018, dated 2023)

Assays:
BRD9 bromodomain = BRD9 bromodomain (Homo sapiens (Human), UniProt Q9H8M2); test: BRD9 bromodomain TR-FRET competition binding assay; details: 3 nM Flag-BRD9, 3.75 nM biotinylated ligand, 90 minutes at room temperature
Protocol: Cleaved His tag was removed by purification.
A mixture of biotinylated-ligand and SureLight™ Allophycocyanin-Streptavidin (APC-SA, PerkinElmer AD0201) in 50 mM HEPES (pH 7.4), 50 mM NaCl, 1 mM TCEP (pH 7), 0.01% (v/v) Tween-20, 0.01% (w/v) bovine serum albumin was added to a white 384-well PerkinElmer Proxiplate Plus plate. DMSO or 3-fold serially diluted compounds were then added to the Proxiplate followed by addition of Flag-BRD9. After a 10 minute incubation at room temperature, Eu-W1024 anti-FLAG (PerkinElmer, AD0273) was added.

[1] = target: Nanoluciferase-BRD9 fusion protein (3×FLAG-NLuc-BRD9) (Homo sapiens (Human), UniProt Q9H8M2); test: SYO1 BRD9 NanoLuc degradation assay; assay type: cell-based; details: SYO-1 cells expressing 3×FLAG-NLuc-BRD9, 6 hours, 1 μM top dose; read-out: SYO1 BRD9-NanoLuc degradation IC50
Protocol: A stable SYO-1 cell line expressing 3×FLAG-NLuc-BRD9 was generated. On day 0 cells were seeded in 30 μL media into each well of 384-well cell culture plates. The seeding density was 8000 cells/well. […] Subsequently plates were incubated for 6 hours in a standard tissue culture incubator and equilibrated at room temperature for 15 minutes. Nanoluciferase activity was measured by adding 15 μL of freshly prepared Nano-Glo Luciferase Assay Reagent (Promega N1130), shaking the plates for 10 minutes and reading the bioluminescence using an EnVision reader.
The Inhibition % was calculated using the following formula: % Inhibition=100×(LumHC−LumSample)/(LumHC−LumLC). DMSO treated cells are employed as High Control (HC) and 1 μM of a known BRD9 degrader standard treated cells are employed as Low Control (LC).

Compound	IC50 (BRD9 bromodomain) [nM]	DC50 [1] [nM]
CNC(=O)[C@@H]1CCN1Cc1c(OC)cc(-c2cn(C)c(=O)c3cnccc23)cc1OC [Compound B56, (2S)-1-[[2,6-dimethoxy-4-(2-methyl-1-oxo-2,7-naphthyridin-4-yl)phenyl]methyl]-N-methylazetidine-2-carboxamide]	10 to 100	–
COc1cc(-c2cc(NC(=O)N(C)C)c3nnc(C)n3c2)cc(OC)c1CN(C)C [Compound B57, 1-(6-[4-[(dimethylamino)methyl]-3,5-dimethoxyphenyl]-3-methyl-[1,2,4]triazolo[4,3-a]pyridin-8-yl)-3,3-dimethylurea]	> 1000	–
COc1cc(-c2cc(NC(=O)N(C)C)c3nncn3c2)cc(OC)c1CN(C)C [Compound B58, 1-(6-[4-[(dimethylamino)methyl]-3,5-dimethoxyphenyl]-[1,2,4]triazolo[4,3-a]pyridin-8-yl)-3,3-dimethylurea]	> 1000	–
CNC(=O)c1ccc2c(-c3cc(OC)c(CN(C)C)c(OC)c3)cn(C)c(=O)c2c1 [Compound B59, 4-[4-[(dimethylamino)methyl]-3,5-dimethoxyphenyl]-N,2-dimethyl-1-oxoisoquinoline-7-carboxamide]	10 to 100	–
COc1cc(-c2cc(NC(C)=O)c3nnc(C)n3c2)cc(OC)c1CN(C)C [Compound B60, N-(6-[4-[(dimethylamino)methyl]-3,5-dimethoxyphenyl]-3-methyl-[1,2,4]triazolo[4,3-a]pyridin-8-yl)acetamide]	10 to 100	–
COc1cc(-c2nn(C)c(=O)c3cnccc23)cc(OC)c1CN(C)C [Compound B62, 1-(4-((dimethylamino)methyl)-3,5-dimethoxyphenyl)-3-methylpyrido[3,4-d]pyridazin-4(3H)-one 2,2,2-trifluoroacetate]	10 to 100	–
CNC(=O)c1ccc2c(=O)n(C)cc(-c3cc(OC)c(CN(C)C)c(OC)c3)c2c1 [Compound B63, 4-(4-((dimethylamino)methyl)-3,5-dimethoxyphenyl)-N,2-dimethyl-1-oxo-12-dihydroisoquinoline-6-carboxamide]	10 to 100	–
COc1cc(-c2cn(C)c(=O)c3cc(-c4nc5ccncc5[nH]4)ccc23)cc(OC)c1CN(C)C [Compound B64, 4-[4-[(dimethylamino)methyl]-3,5-dimethoxyphenyl]-7-[1H-imidazo[4,5-c]pyridin-2-yl]-2-methylisoquinolin-1-one]	10 to 100	–
COc1cc(-c2cn(C)c(=O)c3ccc(-c4nc5cnccc5[nH]4)cc23)cc(OC)c1CN(C)C [Compound B65, 4-(4-((dimethylamino)methyl)-3,5-dimethoxyphenyl)-6-(1H-imidazo[4,5-c]pyridin-2-yl)-2-methylisoquinolin-1(2H)-one]	10 to 100	–
COc1c(CN(C)C)ccc(-c2cn(C)c(=O)c3cnccc23)c1F [Compound B66, 4-(4-((dimethylamino)methyl)-2-fluoro-3-methoxyphenyl)-2-methyl-2,7-naphthyridin-1(2H)-one]	100 to 1000	–
COc1cc(-c2cn(C)c(=O)c3cnccc23)cc(F)c1CN(C)C [Compound B67, 4-(4-((dimethylamino)methyl)-3-fluoro-5-methoxyphenyl)-2-methyl-2,7-naphthyridin-1(2H)-one]	10 to 100	–
COc1cc(/C=C/c2c(C)noc2C)cc(OC)c1CN(C)C [Compound B68]	> 1000	–

Next, values leading:

IC50 (BRD9 bromodomain) [nM]	DC50 [1] [nM]	Compound
< 10	< 10	COc1cc(-c2cn(C)c(=O)c3cnccc23)cc(OC)c1CN(C)CC(=O)NCCCCCCCCCC(=O)N[C@H](C(=O)N1C[C@H](O)C[C@H]1C(=O)NCc1ccc(-c2scnc2C)cc1)C(C)(C)C (stereo in doubt) [Compound D18, (2S,4R)-1-[(2S)-2-[10-[2-([[2,6-dimethoxy-4-(2-methyl-1-oxo-2,7-naphthyridin-4-yl)phenyl]methyl](methyl)amino)acetamido]decanamido]-3,3-dimethylbutanoyl]-4-hydroxy-N-[[4-(4-methyl-1,3-thiazol-5-yl)phenyl]methyl]pyrrolidine-2-carboxamide]
10 to 100	100 to 1000	COc1cc(-c2cn(C)c(=O)c3cnccc23)cc(OC)c1CN(C)CCN(C)CCOCCOc1cccc2c1C(=O)N(C1CCC(=O)NC1=O)C2=O (centres unmarked) [Compound D1, 4-[2-(2-[[2-([[2,6-dimethoxy-4-(2-methyl-1-oxo-2,7-naphthyridin-4-yl)phenyl]methyl](methyl)amino)ethyl](methyl)amino]ethoxy)ethoxy]-2-(2,6-dioxopiperidin-3-yl)isoindole-1,3-dione; formic acid]
10 to 100	< 10	COc1cc(-c2cn(C)c(=O)c3cnccc23)cc(OC)c1CN(C)CC(=O)NCCCCCCCCNc1cccc2c1C(=O)N(C1CCC(=O)NC1=O)C2=O (centres unmarked) [Compound D2, 2-([[2,6-dimethoxy-4-(2-methyl-1-oxo-1,2-dihydro-2,7-naphthyridin-4-yl)phenyl]methyl](methyl)amino)-N-(8-[[2-(2,6-dioxopiperidin-3-yl)-1,3-dioxo-2,3-dihydro-1H-isoindol-4-yl]amino]octyl)acetamide formic acid]
10 to 100	10 to 100	COc1cc(-c2cn(C)c(=O)c3cnccc23)cc(OC)c1CN(C)CC(=O)NCCCCCNc1cccc2c1C(=O)N(C1CCC(=O)NC1=O)C2=O (centres unmarked) [Compound D3, 2-([[2,6-dimethoxy-4-(2-methyl-1-oxo-1,2-dihydro-2,7-naphthyridin-4-yl)phenyl]methyl](methyl)amino)-N-(5-[[2-(2,6-dioxopiperidin-3-yl)-1,3-dioxo-2,3-dihydro-1H-isoindol-4-yl]amino]pentyl)acetamide formic acid]
–	< 10	COc1cc(-c2cn(C)c(=O)c3cnccc23)cc(OC)c1CN(C)C(=O)CCCCCOc1cccc2c1C(=O)N(C1CCC(=O)NC1=O)C2=O (centres unmarked) [Compound D4, N-[[2,6-dimethoxy-4-(2-methyl-1-oxo-1,2-dihydro-2,7-naphthyridin-4-yl)phenyl]methyl]-6-[[2-(2,6-dioxopiperidin-3-yl)-1,3-dioxo-2,3-dihydro-1H-isoindol-4-yl]oxy]-N-methylhexanamide]
< 10	< 10	COc1cc(-c2cn(C)c(=O)c3cnccc23)cc(OC)c1CN(C)CC(=O)NCCCCCCCCNC(=O)COc1cccc2c1C(=O)N(C1CCC(=O)NC1=O)C2=O (centres unmarked) [Compound D5, N-[8-[2-([[2,6-dimethoxy-4-(2-methyl-1-oxo-1,2-dihydro-2,7-naphthyridin-4-yl)phenyl]methyl](methyl)amino)acetamido]octyl]-2-[[2-(2,6-dioxopiperidin-3-yl)-1,3-dioxo-2,3-dihydro-1H-isoindol-4-yl]oxy]acetamide]
10 to 100	< 10	COc1cc(OCC(=O)NCCCCCCCCNc2cccc3c2C(=O)N(C2CCC(=O)NC2=O)C3=O)cc(-c2cn(C)c(=O)c3cnccc23)c1 (centres unmarked) [Compound D6, N-(8-((2-(2,6-dioxopiperidin-3-yl)-1,3-dioxoisoindolin-4-yl)amino)octyl)-2-(3-methoxy-5-(2-methyl-1-oxo-1,2-dihydro-2,7-naphthyridin-4-yl)phenoxy)acetamide]
10 to 100	10 to 100	COc1cc(-c2cn(C)c(=O)c3cnccc23)cc(OC)c1CN(C)CC(=O)N(C)CCCCCNc1cccc2c1C(=O)N(C1CCC(=O)NC1=O)C2=O (centres unmarked) [Compound D7, 2-([[2,6-dimethoxy-4-(2-methyl-1-oxo-1,2-dihydro-2,7-naphthyridin-4-yl)phenyl]methyl](methyl)amino)-N-(5-[[2-(2,6-dioxopiperidin-3-yl)-1,3-dioxo-2,3-dihydro-1H-isoindol-4-yl]amino]pentyl)-N-methylacetamide formic acid]
10 to 100	< 10	COc1cc(NCC(=O)NCCCCCCCCNc2cccc3c2C(=O)N(C2CCC(=O)NC2=O)C3=O)cc(-c2cn(C)c(=O)c3cnccc23)c1 (centres unmarked) [Compound D8, N-(8-[[2-(2,6-dioxopiperidin-3-yl)-1,3-dioxo-2,3-dihydro-1H-isoindol-4-yl]amino]octyl)-2-[[3-methoxy-5-(2-methyl-1-oxo-1,2-dihydro-2,7-naphthyridin-4-yl)phenyl]amino]acetamide formic acid]
10 to 100	< 10	COc1cc(-c2cn(C)c(=O)c3cnccc23)cc(OCC(=O)NCCCCCCCCNc2cccc3c2C(=O)N(C2CCC(=O)NC2=O)C3=O)c1CN(C)C (centres unmarked) [Compound D9, 2-(2-((dimethylamino)methyl)-3-methoxy-5-(2-methyl-1-oxo-1,2-dihydro-2,7-naphthyridin-4-yl)phenoxy)-N-(8-((2-(2,6-dioxopiperidin-3-yl)-1,3-dioxoisoindolin-4-yl)amino)octyl)acetamide]
–	> 1000	COc1cc(-c2cn(C)c(=O)c3cnccc23)cc(OC)c1CN(C)CCc1cccc2c1C(=O)N(C1CCC(=O)NC1=O)C2=O (centres unmarked) [Compound D17, 4-[2-([[2,6-dimethoxy-4-(2-methyl-1-oxo-2,7-naphthyridin-4-yl)phenyl]methyl](methyl)amino)ethyl]-2-(2,6-dioxopiperidin-3-yl)isoindole-1,3-dione]
